What is called Kd is the free concentration of one partner at which half of the binding sites on the other are occupied at equilibrium, for simple one-to-one binding. A word on the IC50: it is the point on the concentration scale where inhibition reaches its midpoint. What is called inhibition is the relative decrease from the control value, in per cent.

In test [1] the target is human RORγt ligand binding domain (RORγt LBD) (Homo sapiens (Human), UniProt P51449). As to the kind of experiment: RORγt ThermoFluor® assay (thermal shift binding). The method, boiled down: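 His-tagged human RORγt LBD (0.065 mg/mL) with 60 μM 1,8-ANS in 100 mM Hepes pH 7.0, 10 mM NaCl, 2.5 mM GSH, 0.002% Tween-20 was heated at 1 °C/min.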
Chain of human RORγt ligand binding domain (RORγt LBD) (P51449 other isoform, or with tags, fused parts or gaps): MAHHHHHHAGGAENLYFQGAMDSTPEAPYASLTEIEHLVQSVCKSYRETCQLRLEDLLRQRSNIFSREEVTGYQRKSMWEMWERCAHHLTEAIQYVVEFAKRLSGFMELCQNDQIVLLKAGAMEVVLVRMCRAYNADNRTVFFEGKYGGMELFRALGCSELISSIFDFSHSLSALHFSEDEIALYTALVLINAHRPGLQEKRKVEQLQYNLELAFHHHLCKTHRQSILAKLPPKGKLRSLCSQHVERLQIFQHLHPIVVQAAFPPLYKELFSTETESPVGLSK
Another test deals with full-length human RORγt (Homo sapiens (Human), UniProt P51449). The test can be described thus: RORγt (full-length human) reporter assay, Conditions B or C. The class given is cell-based. The conditions noted are these: for RORγt (FL) Reporter Assay B or C, % inhibition (value marked *): marked *: footnote not given; for inhibition at 3 µM: at 3 μM compound concentration. The gist of the method: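 HEK293T cells transiently co-transfected with GAL4-DBD–full-length human RORγt (nt 142-1635, NM_001001523.1) plus GAL4-firefly and CMV-Renilla luciferase reporters; compounds added 4-6 h post-transfection for 16-20 h in 1.3% FBS, 0.1% DMSO. Firefly signal normalized to DMSO and saturating reference compound, then to Renilla; IC50 from concentration plots.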
Chain of full-length human RORγt (P51449 other isoform, or with tags, fused parts or gaps): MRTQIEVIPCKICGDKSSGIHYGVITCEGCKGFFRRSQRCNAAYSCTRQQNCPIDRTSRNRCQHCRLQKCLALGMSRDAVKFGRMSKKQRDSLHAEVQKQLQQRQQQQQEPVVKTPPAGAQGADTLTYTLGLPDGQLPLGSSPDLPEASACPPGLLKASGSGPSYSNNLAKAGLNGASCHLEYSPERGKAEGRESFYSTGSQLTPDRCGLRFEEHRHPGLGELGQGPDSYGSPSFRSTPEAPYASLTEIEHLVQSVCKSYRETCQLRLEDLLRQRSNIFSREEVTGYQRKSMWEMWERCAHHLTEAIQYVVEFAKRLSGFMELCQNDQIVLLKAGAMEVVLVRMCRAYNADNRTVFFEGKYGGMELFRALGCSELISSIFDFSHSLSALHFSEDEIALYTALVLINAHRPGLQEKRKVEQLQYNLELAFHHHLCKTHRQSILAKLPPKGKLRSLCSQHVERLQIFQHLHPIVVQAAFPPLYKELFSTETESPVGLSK
(A reporter such as luciferase makes a cellular process visible.)

Where [2] appears, read: read-out: ThermoFluor® Assay, Kd.
Where [3] appears, read: Conditions B or C, read-out: RORγt (FL) Reporter Assay B or C, IC50.
Setting [4] is: read-out: RORγt (FL) Reporter Assay B or C, % inhibition.
Where [5] appears, read: read-out: RORγt (FL) Reporter Assay B or C, IC50.
Where [6] appears, read: RORγt (FL) Reporter Assay B or C, IC50 (μM), Conditions B or C.
Where [7] appears, read: RORγt (FL) Reporter Assay B or C, IC50.

Each structure is given as a SMILES string. Read-outs that look alike come from different tables or passages of the source.

For `C[C@@H](Nc1cc(C(F)(F)F)c(-c2sc(C(=O)NCC(C)(C)O)nc2C(=O)N2C3CCC2CC3)cn1)C1CCC1` (stereo in doubt) [Example 172, 4-((1s,4s)-7-Azabicyclo[2.2[1]heptane-7-carbonyl)-5-(6-(((R*)-1-cyclobutylethyl)amino)-4-(trifluoromethyl)pyridine-3-yl)-N-(2-hydroxy-2-methylpropyl)thiazole-2-carboxamide], the Kd in test [1] (setting [2]) is 0.0012 µM. The “RORγt (FL) Reporter Assay B or C, % inhibition (value marked *)” value (“RORγt … % inhibition (value marked *)” below) on full-length human RORγt (Conditions B or C) is 102* %. In addition, on full-length human RORγt (setting [3]), the IC50 was 0.039 µM.
`C[C@H]1CCCN1C(=O)c1nc(C(=O)N[C@H](C)C(C)(C)O)sc1-c1cnc(NCC(C)(C)C)cc1C(F)(F)F` [Example 334, 5-[6-(2,2-Dimethylpropylamino)-4-(trifluoromethyl)-3-pyridyl]-N-[(1R)-2-hydroxy-1,2-dimethyl-propyl]-4-[(2S)-2-methylpyrrolidine-1-carbonyl]thiazole-2-carboxamide]: the Kd in test [1] (setting [2]) was 0.0014 µM. Also, the inhibition at 3 µM at full-length human RORγt (setting [4]) came to 106%. The IC50 on full-length human RORγt (setting [5]) was 0.007 µM.
For the compound `C[C@H](Nc1cc(C(F)F)c(-c2sc(C(=O)N[C@H]3C[C@@H]3O)nc2C(=O)N2CCC[C@@H]2C)cn1)C(F)(F)F` (relative stereo) [Example 223, 5-(4-(Difluoromethyl)-6-(((S)-1,1,1-trifluoropropan-2-yl)amino)pyridin-3-yl)-N-((1S*,2S*)-2-hydroxycyclopropyl)-4-((S)-2-methylpyrrolidine-1-carbonyl)thiazole-2-carboxamide], the Kd in test [1] (setting [2]) was 0.033 µM. Moreover, the “RORγt … % inhibition (value marked *)” value on full-length human RORγt (Conditions B or C) was 112* %. Further, at full-length human RORγt (setting [3]), the IC50 was determined as 0.1 µM.
The corresponding values for `C[C@H]1CCCN1C(=O)c1nc(C(=O)NCC(C)(C)O)sc1-c1cnc(NC(C)(C)C2CC2)cc1C(F)F` [Example 105, (S)-5-(6-((2-Cyclopropylpropan-2-yl)amino)-4-(difluoromethyl)pyridin-3-yl)-N-(2-hydroxy-2-methylpropyl)-4-(2-methylpyrrolidine-1-carbonyl)thiazole-2-carboxamide] are 0.002 µM, 116* % and 0.015 µM.
The corresponding values for `CC[C@H](Nc1cc(C(F)F)c(-c2sc(C(=O)N[C@H](C)CO)nc2C(=O)N2CCC[C@@H]2C)cn1)C(F)(F)F` [Example 234, 5-[4-(Difluoromethyl)-6-[[(1S)-1-(trifluoromethyl)propyl]amino]-3-pyridyl]-N-[(1R)-2-hydroxy-1-methyl-ethyl]-4-[(2S)-2-methylpyrrolidine-1-carbonyl]thiazole-2-carboxamide] are 0.0052 µM, 116* % and 0.042 µM.
For `C[C@H]1CC(F)(F)CN1C(=O)c1nc(C(=O)NCC(C)(C)O)sc1-c1cnc(NC(C)(C)C2CC2)cc1C(F)F` [Example 106, (S)-5-(6-((2-Cyclopropylpropan-2-yl)amino)-4-(difluoromethyl)pyridin-3-yl)-4-(4,4-difluoro-2-methylpyrrolidine-1-carbonyl)-N-(2-hydroxy-2-methylpropyl)thiazole-2-carboxamide] the same measures were 0.00079 µM, 117* % and 0.022 µM.
`CCC(C)(C)Nc1cc(C(F)(F)F)c(-c2sc(C(=O)NCC(C)(C)O)nc2C(=O)N2C3CCC2CC3)cn1` [Example 98, 4-((1s,4s)-7-Azabicyclo[2.2.1]heptane-7-carbonyl)-N-(2-hydroxy-2-methylpropyl)-5-(6-(tert-pentylamino)-4-(trifluoromethyl)pyridin-3-yl)thiazole-2-carboxamide]: the Kd in test [1] (setting [2]) worked out at 0.00041 µM. The “RORγt … % inhibition (value marked *)” value on full-length human RORγt (Conditions B or C) is recorded as 110* %. The IC50 on full-length human RORγt (setting [6]) was 0.0096 µM.
On to `C[C@H]1CC(F)(F)CN1C(=O)c1nc(C(=O)N[C@H]2C[C@H](O)C2)sc1-c1cnc(NC(C)(C)C)cc1C(F)F` [Example 429, 5-(6-(tert-Butylamino)-4-(difluoromethyl)pyridin-3-yl)-4-((S)-4,4-difluoro-2-methylpyrrolidine-1-carbonyl)-N-((1r,3S)-3-hydroxycyclobutyl)thiazole-2-carboxamide], for which the Kd in test [1] (setting [2]) is 0.0025 µM. The inhibition at 0.33 µM on full-length human RORγt (at 0.33 μM compound concentration, read-out: RORγt (FL) Reporter Assay B or C, % inhibition) worked out at 113%. Further, the IC50 at full-length human RORγt (setting [5]) stood at 0.0095 µM.
For `C[C@H](Nc1cc(C(F)F)c(-c2sc(C(=O)NCC(C)(C)O)nc2C(=O)N2C3CCC2CC3)cn1)C1CC1` [Example 55, 4-((1s,4s)-7-Azabicyclo[2.2.1]heptane-7-carbonyl)-5-(6-(((S)-1-cyclopropylethyl)amino)-4-(difluoromethyl)pyridin-3-yl)-N-(2-hydroxy-2-methylpropyl)thiazole-2-carboxamide], the Kd in test [1] (setting [2]) is 0.0079 µM. On full-length human RORγt (Conditions B or C), the “RORγt … % inhibition (value marked *)” value is given as 92* %. Moreover, the IC50 on full-length human RORγt (setting [3]) turned out to be 0.031 µM.
Consider `C[C@@H](NC(=O)c1nc(C(=O)N2C3CCC2CC3)c(-c2cnc(N[C@@H](C3CC3)C(F)(F)F)cc2C(F)F)s1)C(C)(C)O` [Example 316, 4-((1s,4s)-7-Azabicyclo[2.2.1]heptane-7-carbonyl)-5-(6-(((S)-1-cyclopropyl-2,2,2-trifluoroethyl)amino)-4-(difluoromethyl)pyridin-3-yl)-N—((R)-3-hydroxy-3-methylbutan-2-yl)thiazole-2-carboxamide], for which, in test [1] (setting [2]), the Kd turned out to be 0.0029 µM. On full-length human RORγt (setting [7]), this compound gave an IC50 of 0.032 µM. Also, on full-length human RORγt (setting [4]), the inhibition at 3 µM was found to be 108%.
As to `CC[C@@H](Nc1cc(C(F)(F)F)c(-c2sc(C(=O)NCC(C)(C)O)nc2C(=O)N2C3CCC2CC3)cn1)C1CC1` (stereo in doubt) [Example 131], the Kd in test [1] (ThermoFluor® Assay, Kd (μM)) amounted to 0.0014 µM. Further, at full-length human RORγt (Conditions B or C), the “RORγt … % inhibition (value marked *)” value is listed as 107* %. The compound further yielded an IC50 at full-length human RORγt (setting [6]) of 0.03 µM.
For `C[C@H]1CCCN1C(=O)c1nc(C(=O)NC2CCOCC2)sc1-c1cnc(NC(C)(C)C)cc1C(F)F` [Example 412, 5-[6-(tert-Butylamino)-4-(difluoromethyl)-3-pyridyl]-4-[(2S)-2-methylpyrrolidine-1-carbonyl]-N-tetrahydropyran-4-yl-thiazole-2-carboxamide], the Kd in test [1] (setting [2]) worked out at 0.0034 µM. The inhibition at 3 µM on full-length human RORγt (setting [4]) was 127%. The IC50 on full-length human RORγt (setting [5]) came to 0.037 µM.
The corresponding values for `CC(C)[C@@H](C)Nc1cc(C(F)F)c(-c2sc(C(=O)NCC(C)(C)O)nc2C(=O)N2CCC[C@@H]2C)cn1` [Example 297, 5-(4-(Difluoromethyl)-6-(((R)-3-methylbutan-2-yl)amino)pyridine-3-yl)-N-(2-hydroxy-2-methylpropyl)-4-((S)-2-methylpyrrolidine-1-carbonyl)thiazole-2-carboxamide] are 0.018 µM, 110% and 0.05 µM.
As for `C[C@H]1CCCN1C(=O)c1nc(C(=O)NCC(C)(C)O)sc1-c1cnc(NCC2(C(F)(F)F)CCC2)cc1C(F)(F)F` [Example 117, (S)—N-(2-Hydroxy-2-methylpropyl)-4-(2-methylpyrrolidine-1-carbonyl)-5-(4-(trifluoromethyl)-6-(((1-(trifluoromethyl)cyclobutyl)methyl)amino)pyridin-3-yl)thiazole-2-carboxamide], the Kd in test [1] (setting [2]) was determined as 0.00078 µM. The “RORγt … % inhibition (value marked *)” value on full-length human RORγt (Conditions B or C) is listed as 107* %. Also, the IC50 on full-length human RORγt (setting [3]) came out at 0.0033 µM.
As to `C[C@H]1CCCN1C(=O)c1nc(C(=O)N[C@H]2C[C@H](O)C2)sc1-c1cnc(N[C@H](C)C(F)(F)F)cc1C(F)F` [Example 319, 5-(4-(Difluoromethyl)-6-(((R)-1,1,1-trifluoropropan-2-yl)amino)pyridin-3-yl)-N-((1r,3S)-3-hydroxycyclobutyl)-4-((S)-2-methylpyrrolidine-1-carbonyl)thiazole-2-carboxamide], the Kd in test [1] (setting [2]) came to 0.029 µM. Moreover, the inhibition at 3 µM at full-length human RORγt (setting [4]) was found to be 91%. Moreover, the 50% inhibitory concentration (IC50) on full-length human RORγt (setting [5]) is 0.079 µM.
The corresponding values for `CC(C)(C)Nc1cc(C(F)F)c(-c2sc(C(=O)NC3CCS(=O)(=O)CC3)nc2C(=O)N2C3CCC2CC3)cn1` [Example 433, 4-((1s,4s)-7-Azabicyclo[2.2.1]heptane-7-carbonyl)-5-[6-(tert-butylamino)-4-(difluoromethyl)-3-pyridyl]-N-(1,1-dioxothian-4-yl)thiazole-2-carboxamide] are 0.0012 µM, 128% and 0.025 µM.
Turning to `O=C(N[C@@H]1CC[C@@H](O)C1)c1nc(C(=O)N2C3CCC2CC3)c(-c2cnc(N[C@@H](C3CC3)C(F)(F)F)cc2C(F)F)s1` [Example 437, 4-((1s,4s)-7-Azabicyclo[2.2.1]heptane-7-carbonyl)-5-[6-[[(1S)-1-cyclopropyl-2,2,2-trifluoro-ethyl]amino]-4-(difluoromethyl)-3-pyridyl]-N-[(1R,3R)-3-hydroxycyclopentyl]thiazole-2-carboxamide], the Kd in test [1] (setting [2]) worked out at 0.00044 µM. At full-length human RORγt (setting [7]), the IC50 came out at 0.016 µM. Besides, the inhibition at 3 µM on full-length human RORγt (setting [4]) came to 90%.

The values above are taken from US10975068B2, “6-aminopyridin-3-yl thiazoles as modulators of RORγT” (Janssen Pharmaceutica NV, priority 2016, dated 2021).
